Assay results: patent US20070197509A1, “Compositions and methods for modulating gated ion channels” (PainCeptor Pharma Corporation, priority 2005, published 2007)
“Also recorded” adds a separate entry of the source.

Legend:
[1] = tested on: T1, hASIC3 (h3) and/or hASIC1a (h1a); test: FlexStation/FLIPR assay, channel not marked in the cell; type: cell-based, human; conditions: Table H, cells without channel mark; HEK293; read-out: EC50 (μM) Flex/FLIPR
T1 construct: EC50 (μM) in one experiment; HEK293
Excerpt: (§1) The MES-induced peak calcium response (or change in membrane potential), in the presence of test substance, is expressed relative to the MES response alone. Test substances that block the MES-induced calcium response (or change in membrane potential) are re-tested in triplicates. Confirmed hits are picked for further characterization by performing full dose-response curves to determine potency of each hit compound as represented by the IC50 values (i.e., the concentration of the test substance which inhibits 50% of the MES-induced calcium and/or membrane potentiation response; see, for example, FIG. 1).
(§2) The data shown in Table H was acquired using the FlexStation assay described in Example 1 on HEK293 cells expressing hASIC3 (h3) and/or hASIC1a (h1a).

[2] = tested on: formalin-induced pain; test: Formalin test, model of acute tonic pain; type: in vivo; conditions: rat
Experimental: Male Sprague-Dawley rats are housed together in groups of three animals under standard conditions with unrestricted access to food and water. All experiments are conducted according to the ethical guidelines for investigations of experimental pain in conscious animals (Zimmerman, 1983)
Assessment of formalin-induced flinching behavior in normal, uninjured rats (body weight 150-180 g) was made with the use of an Automated Nociception Analyser (University of California, San Diego, USA). Briefly, this involved placing a small C-shaped metal band (10 mm wide×27 mm long) on the hindpaw of the rat to be tested. The rats (four rats were included in each testing session) were then placed in a cylindrical plexiglass observation chamber (diameter 30.5 cm and height 15 cm) for 20 min for adaptation purposes prior to being administered drug or vehicle according to the experimental paradigm being followed. […] Rats were then returned to their separate observation chambers, each of which were in turn situated upon an enclosed detection device consisting of two electromagnetic coils designed to produce an electromagnetic field in which movement of the metal band could be detected. […] A sampling interval of 1 min was used and on the basis of the resulting response patterns 5 phases of nociceptive behaviour were identified and scored: first phase (P1; 0-5 min), interphase (Int; 6-15 min), second phase (P2; […]), phase 2A (P2A; 16-40 min) and phase 2B (P2B; 41-60 min).
Nociceptive behavior was also determined manually every 5 min by measuring the amount of time spent in each of four behavioral categories: 0, treatment of the injected hindpaw is indistinguishable from that of the contralateral paw; 1, the injected paw has little or no weight placed on it; 2, the injected paw is elevated and is not in contact with any surface; 3, the injected paw is licked, bitten, or shaken. A weighted nociceptive score, ranging from 0 to 3 was calculated by multiplying the time spent in each category by the category weight, summing these products, and dividing by the total time for each 5 min block of time. […]

[3] = biological target: T2, hASIC3 (Homo sapiens, UniProt Q9UHC3); test: FlexStation assay on HEK293 cells expressing hASIC3; type: cell-based; design: expressed in transfected cells; host or cells: HEK293 cells; conditions: FlexStation (Flex), Tables A-F; read-out: Biological Data (IC50 uM) h3 (Flex)
T2 sequence (Q9UHC3 1-531): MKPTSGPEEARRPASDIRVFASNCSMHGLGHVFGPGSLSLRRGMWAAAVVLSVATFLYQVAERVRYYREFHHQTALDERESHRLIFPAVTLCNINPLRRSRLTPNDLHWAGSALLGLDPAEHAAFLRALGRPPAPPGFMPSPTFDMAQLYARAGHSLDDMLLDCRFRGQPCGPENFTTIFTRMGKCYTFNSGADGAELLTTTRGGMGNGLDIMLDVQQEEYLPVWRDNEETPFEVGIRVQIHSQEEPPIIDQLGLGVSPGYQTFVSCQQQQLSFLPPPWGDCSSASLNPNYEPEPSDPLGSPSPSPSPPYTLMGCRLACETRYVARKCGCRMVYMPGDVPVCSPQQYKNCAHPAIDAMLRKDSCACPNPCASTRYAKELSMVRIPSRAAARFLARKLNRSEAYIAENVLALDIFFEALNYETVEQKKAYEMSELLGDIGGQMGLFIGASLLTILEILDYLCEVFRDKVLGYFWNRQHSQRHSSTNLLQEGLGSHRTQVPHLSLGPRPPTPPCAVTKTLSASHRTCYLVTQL
Experimental: A vial of FMP dye (Molecular Devices) is resuspended in 10.5 ml of assay buffer (48.3 mM NaCl, 93 mM NMDG, 5 mM KCl, 5 mM CaCl2, 1 mM MgCl2, 10 mM HEPES, pH 7.4). The culture medium is aspirated from the wells, and 100 μl of the FMP loading solution is added to each well. The cells are incubated at 37° C. for 30 min.
After the loading period, the loading solution is left on the cells and the membrane potential-induced fluorescence is measured in FLIPR™ or FlexStation™ (Molecular Devices, USA), or any other suitable equipment known to the skilled in the art.
For cells co-expressing ASIC1a and ASIC3 channels (e.g. HEK293 cells), membrane potential dye (FMP dye) is used and the FlexStation settings are as above.
as §1, §2

With COc1ccc(C(=O)CN2CCN(c3cc(C)nc4ccccc34)CC2)cc1 [Compound A, 1-(4-methoxy-phenyl)-2-[4-(2-methyl-quinolin-4-yl)-piperazin-1-yl]-ethanone] the EC50 [1] was under 10 µM and the “formalin-induced pain, flinching / total pain score (FIG. 5)” value ([2]; i.p. 30 min before formalin, Automated Nociception Analyser, phase 2, n=6) was “able to reduce the total pain score behavior; also recorded: dose-dependent reduction of the pain intensity”.

For Cc1cc(OC2CCN(Cc3ccccc3)CC2)c2ccccc2n1 [Compound R, 4-(1-benzyl-piperidin-4-yloxy)-2-methyl-quinoline], the EC50 [1] was over 10 µM, the ED50 ([2]; licking and biting episodes in phase IIa of the formalin test (FIG. 7), read-out: ED50 (dose where the pain score is reduced by half)) was about 50 mg/kg and the “formalin-induced pain behavior (FIGS. 6A, 6B)” value ([2]; manual scoring, overall pain behaviour and licking/biting, n=6) was “dose-dependent effect; also recorded: dose-dependent reduction of the pain behavior”. For the same molecule, the IC50 [3] was 5 to 15 µM.
